One data set relates to procaspases-9 and -3. As to the kind of experiment: Immunoblot for cleavage of procaspases-9 and -3 in S-100 cytoplasmic extracts. The format is biochemical. As to conditions: 20 μM compound, cyto c 1.25 μM. The procedure: FIG. 2 depicts activity of compounds 1-5 in cell lysates. (A) Compound activation is cyto c dependent. Cyto c was titrated into S-100 cytoplasmic extracts with vehicle alone or 20 μM compound and procaspase-3 processing was assayed by capture ELISA. (B) Compound activation is dose-dependent. Compounds or vehicle were titrated into S-100 cytoplasmic extracts at a cyto c concentration of 1.25 μM and procaspases-3 processing was assayed by capture ELISA. (C) Immunoblot assay of compound-induced caspase activation. Samples at the 20 μM compound concentration in (B) were separated on SDS-polyacrylamide gel and transferred to polyvinyl membrane. The same membrane was cut and probed with antibodies to caspase-9, the large subunit of active caspase-3, and P13 kinase as a loading control. (D) Compounds act upstream of caspase-9 activation. Cyto c was titrated into caspase-3 immunodepleted extracts with or without 20 μM compounds and assayed by immunoblot for procaspase-9 processing.
To directly visualize the processing of procaspases induced by the compounds, samples at the 20 μM compound concentration in FIG. 2B were assayed by immunoblot for the cleavage of procaspases-9 and -3.

The next data set deals with MDA-MB-453. As to the kind of experiment: Cell viability, MDA-MB-453. The following applies: MDA-MB-453, breast. The format is cell-based. An excerpt: (§1) Normal cell lines include peripheral blood lymphocytes (PBL) isolated from donated human blood, non-transformed mammary fibroblasts (MCF-10A), human mammary epithelial cells (HMEC), human umbilical vein endothelial cells (HUVEC), and human prostate epithelial cells (PREC). Transformed cell lines include cell lines from leukemia, breast, lung, ovarian, and epidermal cancers (Table 1).

Another data set concerns A431. As to the kind of experiment: Cell viability, A431. The format is cell-based. As to conditions: A431, epidermal.
Text: as §1

In another data set the test system is MCF 10A cells. The data set is described as follows: Cell viability, MCF 10A. The format is cell-based, human.
Text: as §1

The subject of data set [1] is human mammary epithelial cells (HMEC). As to the kind of experiment: Cell viability, HMEC. Format: cell-based.
Another data set concerns procaspase-3 processing. The data set is described as follows: Procaspase-3 processing in SK-OV-3 cell lysate with purified Apaf-1. The format is biochemical. As to conditions: 20 μM compound, 150 nM purified Apaf-1, 300 μM dATP. The procedure: (§2) (A) Jurkat cells were transfected with 20 nM Apaf-1 siRNA for 48 hr and half the cells were lysed and probed with antibodies to Apaf-1, caspase-9, and caspase-3. The other half of the cells was incubated with varying concentrations of (B), compound 2 or (C), Fas ligand for 24 hr and assayed for viability by MTT test. (D) SK-OV-3 cells were transiently transfected with Apaf-1 or vector control for 24 hr and then incubated with vary concentrations of compound 2 and assayed for viability. (E) Cyto c was titrated into SK-OV-3 cell lysate in the presence of 300 μM dATP, with or without 150 nM purified Apaf-1 and 20 μM compound 2 as indicated.
(§3) If silencing Apaf-1 in Jurkat cells make them resistant to compound 2 induced apoptosis, then it would be expected that ectopic expression of wildtype Apaf-1 in an Apaf-1 deficient cell line should render cells sensitive to compound 2. As mentioned above, the ovarian cancer cell line SK-OV-3 is deficient in Apaf-1 activity and is resistant to compound 2. Apaf-i was cloned into pcDNA-3 and transiently transfected into SK-OV-3 cells using Fugene (Roche) according to the manufacturer's instructions. Transient transfection of Apaf-1 into SK-OV-3 cells rendered them sensitive to compound 2 cytotoxicity as compared to the vector control (FIG. 5D). […]

The test system of data set [2] is Apaf-1 transfected SK-OV-3 cells. The data set is described as follows: Viability of SK-OV-3 cells transiently transfected with Apaf-1. Format: cell-based. As to conditions: several independent experiments. Here is the method:
as §2, §3

For data set [3], the system named is cell lines from the NCI cancer panel. As to the kind of experiment: NCI cancer panel, cell growth by sulforhodamine B staining. Format: cell-based. Here is the method:
Cells were exposed to serial dilutions of compound 2 continuously for 6 days, and cell growth relative to controls was determined by staining with sulforhodamine B. Some cell lines were excluded for clarity. (A) Dose-response plots for leukemia, melanoma, renal cancer and CNS cancer. (B) Dose-response plots for lung, breast and colon cancers.
Compounds 2-5 additionally were submitted to the National Cancer Institute for screening in the cancer panel. […] Compound 2 exerted a cytostatic effect on the majority of cell lines tested, inhibiting cell growth by 50-100% at 10 μM in 40 out of 48 cell lines tested. In addition, compound 2 exerted a cytotoxic effect, reducing the cell numbers by 10-50% in four cell lines and by 50-100% in eight cell lines from the initial levels when tested at 10 μM. […] Representative dose-response plots for lung, breast and colon cancer cell lines are also shown (FIG. 4B). Results for ovarian and prostate cancer were similar.
In general terms: Sulforhodamine B stains cellular protein and so reports cell mass.

A further data set deals with MCF-7. As to the kind of experiment: Cell viability, MCF-7. Format: cell-based.
Text: as §1

For the next data set, the system named is NCI-H23. The data set is described as follows: Cell viability, NCI-H23. Format: cell-based, human. The following applies: NCI-H23, lung.
For data set [4], the system named is Jurkat cells transfected with Apaf-1 siRNA. The data set is described as follows: Viability of Jurkat cells transfected with Apaf-1 siRNA (MTT test). The following applies: 20 nM Apaf-1 siRNA 48 hr, then 24 hr incubation. The format is cell-based, human. The procedure: as §2
In order to verify that compound 2 targets the apoptosome as a function of its cytotoxic activity, small interfering RNA (siRNA) was used to silence the expression of Apaf-1 in Jurkat cells. Sense and anti-sense oligonucleotides corresponding to nucleotides 978-998 of Apaf-1 (([…]) as reported by Lassus et al. Science 297, 1352-4. (2002)), were purchased from Dharmacon. Transfection of siRNA into Jurkat cells was accomplished using GeneSilencer (Gene Therapy Systems) according to manufacturer's instructions. There was a significant decrease in the level of expression of Apaf-1 48 hr after transfection of an Apaf-1 specific siRNA, without affecting the expression of caspases in the pathway (FIG. 5A).

For the compound `O=C(NCc1ccc(Cl)c(Cl)c1)OC1CCc2ccccc21` (stereo not shown) [Compound 4], the “processing of procaspases-9 and -3” value in the data set on procaspases-9 and -3 is reported as “limited processing”.
The IC50 is the concentration that gives 50% inhibition. `O=C1C(=O)N(Cc2ccc(Cl)c(Cl)c2)c2ccccc21` [Compound 2]: the IC50 with MDA-MB-453 was > 50 µM; in the data set with A431, 40 µM; in the data set with MCF 10A cells (MCF 10A, normal cell), > 50 µM; in data set [1] (HMEC, normal cell), > 50 µM; with MCF-7 (MCF-7, breast, caspase-3 deficient) it was > 50 µM; in the data set with NCI-H23, 35 µM. Also, the effect on cells entry with MCF 10A cells (MCF 10A cells, up to 50 μM) was “no effect except at the highest concentration”; in data set [1] (HMEC cells, up to 50 μM) it was “no effect except at the highest concentration”; in the data set with MCF-7 (MCF-7, deficient in caspase-3 activity), “no effect”. Also, the “effect on cyto c activation curve of procaspase-3 processing” value with procaspase-3 processing was “shifted the activation curve to the left”. In addition, the “viability of cells exposed to compound (plateau)” value in [2] is reported as 40-50%. Also, the “inhibition of cell growth (cytostatic effect)” value in data set [3] (10 μM, in 40 out of 48 cell lines tested, 6 days) is on record as 50-100%. For the same compound, the “reduction of cell numbers from the initial levels (cytotoxic effect)” value in data set [3] (10 μM, in eight cell lines) is 50-100%; in [3] (10 μM, in four cell lines), 10-50%. The cytotoxicity in data set [3] (100 μM, virtually all cell lines) was 100%. Also, the “sensitivity relative to the mean response of the panel” value in data set [3] (CCRF-CEM, MOLT-4, LOX IMVI, SN 12C, SF-295) was 5-10 fold. Moreover, in data set [3] (among compounds 2-5), the “overall activity in the cancer panel” value is listed as “most active overall”. The “cell killing after silencing of Apaf-1” value in data set [4] is listed as “resistance”.

(Values after US20030229132A1, “Small molecule modulators of apoptosis” (priority 2002, published 2003).)
